The values below come from ChEMBL document CHEMBL5506058, “Discovery of Quinazoline and Quinoline-Based Small Molecules as Utrophin Upregulators via AhR Antagonism for the Treatment of Duchenne Muscular Dystrophy” (J Med Chem, 2024).

For one data set, the system named is C2C12. Description: Cytotoxicity against mouse C2C12 cells assessed as reduction in cell viability at 0.78 to 100 uM measured after 24 hrs by MTT assay. Type of data set: toxicity, cell-based. Particulars: c2c12, 24 h, dose 0.78-100 µM. (In general: Formazan colour is commonly taken as a measure of viable cells.)
Data set [1] in a line: Upregulation of utrophin expression in mouse C2C12 cells assessed as fold increase at 800 nM measured after 72 hrs by In-cell ELISA method. Format: functional. A general note: In an ELISA, binding on a coated surface is turned into a signal by an enzyme label.

The structures appear in SMILES notation.

Consider `CCS(=O)(=O)c1ccc2nc(NCc3ccncc3)ccc2c1`, for which the Activity result with C2C12 was “Toxic”. For the same compound, the “fold change (FC)” value in data set [1] came to 1.73.
Take `COc1ccc(Nc2ccc3cc(S(C)(=O)=O)ccc3n2)cc1`: the Activity result in the data set on C2C12 is given as “Toxic”. Further, in data set [1], the “fold change (FC)” value came out at 0.87.
With `CS(=O)(=O)c1ccc2nc(NCc3ccncc3)ccc2c1`, the Activity entry with C2C12 was “Toxic”. Also, the “fold change (FC)” value in data set [1] is reported as 1.42.
In the case of `CCS(=O)(=O)c1ccc2nc(NCc3ccc(OC)cc3)ccc2c1`, in the data set on C2C12, the Activity entry is “Toxic”. Besides, in data set [1], the “fold change (FC)” value turned out to be 0.89.
On to `CCS(=O)(=O)c1ccc2nc(NCc3ccc(O)cc3)ncc2c1`, for which, in the data set on C2C12, the Activity entry is “Toxic”. In addition, the “fold change (FC)” value in data set [1] worked out at 1.12.
Take `CS(=O)(=O)c1ccc2nc(Nc3ccc(F)cc3)ccc2c1`: the Activity result with C2C12 is “Toxic”. For the same compound, the “fold change (FC)” value in data set [1] came to 0.93.
In the case of `CCS(=O)(=O)c1ccc2nc(Nc3cc(OC)cc(OC)c3)ccc2c1`, the Activity entry in the data set with C2C12 was “Toxic”. The “fold change (FC)” value in data set [1] amounted to 1.17.
For the compound `CCS(=O)(=O)c1ccc2nc(NCc3ccc(F)cc3)ccc2c1`, the Activity result in the data set with C2C12 is “Toxic”. Besides, the “fold change (FC)” value in data set [1] came out at 1.2.
For `CCS(=O)(=O)c1ccc2nc(NCc3ccc(O)cc3)ccc2c1`, the Activity result with C2C12 is given as “Toxic”. Further, the “fold change (FC)” value in data set [1] came out at 0.98.
On to `CS(=O)(=O)c1ccc2nc(NCCc3cc4ccccc4[nH]3)ncc2c1`, for which the Activity result with C2C12 is given as “Toxic”. Further, the “fold change (FC)” value in data set [1] is recorded as 1.81.
Turning to `CS(=O)(=O)c1ccc2cnc(NCc3ccc(C(F)(F)F)cc3)nc2c1`, the Activity entry in the data set on C2C12 is reported as “Toxic”. Besides, the “fold change (FC)” value in data set [1] worked out at 1.8.
In the case of `CCS(=O)(=O)c1ccc2nc(Nc3cc(O)cc(O)c3)ccc2c1`, the Activity entry in the data set on C2C12 was “Toxic”. The “fold change (FC)” value in data set [1] was 1.02.
`CCS(=O)(=O)c1ccc2nc(NCc3ccc(C(C)(C)C)cc3)ccc2c1`: the Activity result in the data set with C2C12 is given as “Toxic”. Besides, the “fold change (FC)” value in data set [1] is recorded as 0.9.
Turning to `CCS(=O)(=O)c1ccc2nc(NCc3ccc(F)cc3)ncc2c1`, the Activity entry in the data set with C2C12 was “Toxic”. Further, the “fold change (FC)” value in data set [1] came to 1.4.
Turning to `CS(=O)(=O)c1ccc2nc(Nc3ccc4c(c3)OCO4)ccc2c1`, the Activity entry with C2C12 is “Toxic”. Besides, the “fold change (FC)” value in data set [1] stood at 1.
For the compound `CCS(=O)(=O)c1ccc2nc(NCc3cc(OC)cc(OC)c3)ccc2c1`, the Activity entry with C2C12 is “Toxic”. Besides, the “fold change (FC)” value in data set [1] is 1.42.
The corresponding values for `CS(=O)(=O)c1ccc2nc(Nc3ccc(O)cc3)ccc2c1` are “Toxic” and 1.03.
With `COc1cc(CNc2ccc3cc(S(C)(=O)=O)ccc3n2)cc(OC)c1`, the Activity result in the data set with C2C12 was “Toxic”. Besides, the “fold change (FC)” value in data set [1] is recorded as 1.26.
For `COc1ccc(CNc2ccc3cc(S(C)(=O)=O)ccc3n2)cc1`, the Activity entry in the data set on C2C12 was “Toxic”. Moreover, in data set [1], the “fold change (FC)” value was found to be 0.94.
As to `CS(=O)(=O)c1ccc2nc(NCCc3cc4ccccc4[nH]3)ccc2c1`, the Activity entry with C2C12 is on record as “Toxic”. Moreover, the “fold change (FC)” value in data set [1] amounted to 1.78.
For the compound `CCS(=O)(=O)c1ccc2nc(Nc3ccc(C(F)(F)F)cc3)ncc2c1`, the Activity entry with C2C12 was “Toxic”. In addition, the “fold change (FC)” value in data set [1] was found to be 1.25.
Take `CS(=O)(=O)c1ccc2nc(Nc3ccc(C(F)(F)F)cc3)ncc2c1`: the Activity result in the data set with C2C12 is recorded as “Toxic”. Besides, the “fold change (FC)” value in data set [1] came out at 1.06.
The corresponding values for `CCS(=O)(=O)c1ccc2nc(NCc3ccc(C(F)(F)F)cc3)ccc2c1` are “Toxic” and 1.16.
With `CS(=O)(=O)c1ccc2nc(NCc3ccc(F)cc3)ccc2c1`, in the data set with C2C12, the Activity entry is given as “Toxic”. In data set [1], the “fold change (FC)” value was determined as 1.
As for `CS(=O)(=O)c1ccc2nc(NCc3ccc4c(c3)OCO4)ccc2c1`, in the data set with C2C12, the Activity result was “Toxic”. In addition, the “fold change (FC)” value in data set [1] is recorded as 0.97.
As to `COc1ccc(Nc2ncc3cc(S(C)(=O)=O)ccc3n2)cc1`, in the data set with C2C12, the Activity result is “Toxic”. Moreover, the “fold change (FC)” value in data set [1] amounted to 1.05.
The corresponding values for `CCS(=O)(=O)c1ccc2nc(Nc3ccc(OC)cc3)ccc2c1` are “Toxic” and 1.09.
On to `CCS(=O)(=O)c1ccc2nc(NCc3ccc(OC)cc3)ncc2c1`, for which the Activity result with C2C12 is on record as “Toxic”. For the same compound, the “fold change (FC)” value in data set [1] came to 1.01.
In the case of `CCS(=O)(=O)c1ccc2nc(NCCc3cc4ccccc4[nH]3)ncc2c1`, the Activity result with C2C12 is recorded as “Toxic”. In data set [1], the “fold change (FC)” value is recorded as 1.73.
For `CCS(=O)(=O)c1ccc2nc(NCc3cc(OC)cc(OC)c3)ncc2c1`, the Activity result with C2C12 was “Toxic”. Also, the “fold change (FC)” value in data set [1] was 1.62.
As to `CCS(=O)(=O)c1ccc2nc(Nc3ccc(O)cc3)ncc2c1`, the Activity result with C2C12 was “Toxic”. Besides, the “fold change (FC)” value in data set [1] was 1.08.
On to `CCS(=O)(=O)c1ccc2cnc(NCc3ccc(F)cc3)nc2c1`, for which the Activity entry in the data set on C2C12 is given as “Toxic”. In data set [1], the “fold change (FC)” value was 0.67.
With `CS(=O)(=O)c1ccc2nc(Nc3cc(O)cc(O)c3)ccc2c1`, the Activity entry with C2C12 was “Toxic”. Besides, the “fold change (FC)” value in data set [1] is given as 1.08.
In the case of `CS(=O)(=O)c1ccc2nc(NCc3ccc(O)cc3)ccc2c1`, in the data set with C2C12, the Activity result is “Toxic”. For the same compound, the “fold change (FC)” value in data set [1] is given as 1.07.
Taken in the same sequence, the figures for `CS(=O)(=O)c1ccc2nc(NCc3ccc(C(F)(F)F)cc3)ccc2c1` were “Toxic” and 1.27.
On to `CS(=O)(=O)c1ccc2nc(Nc3ccc(O)cc3)ncc2c1`, for which the Activity entry in the data set with C2C12 is reported as “Toxic”. The “fold change (FC)” value in data set [1] is on record as 1.06.
`CS(=O)(=O)c1ccc2nc(NCc3ccc(C(F)(F)F)cc3)ncc2c1`: the Activity entry in the data set with C2C12 was “Toxic”. Also, in data set [1], the “fold change (FC)” value came to 1.27.
As for `CCS(=O)(=O)c1ccc2nc(NCc3ccncc3)ncc2c1`, the Activity entry in the data set with C2C12 is given as “Toxic”. In addition, in data set [1], the “fold change (FC)” value was found to be 1.77.
For `CCS(=O)(=O)c1ccc2nc(NCc3ccc4c(c3)OCO4)ccc2c1`, the Activity result in the data set with C2C12 is on record as “Toxic”. The “fold change (FC)” value in data set [1] worked out at 0.98.
Take `CCS(=O)(=O)c1ccc2nc(NCCc3cc4ccccc4[nH]3)ccc2c1`: the Activity entry in the data set with C2C12 is listed as “Toxic”. Besides, in data set [1], the “fold change (FC)” value was 1.3.
On to `CCS(=O)(=O)c1ccc2cnc(NCc3ccc(C(F)(F)F)cc3)nc2c1`, for which the Activity result with C2C12 is “Toxic”. In addition, in data set [1], the “fold change (FC)” value worked out at 1.51.
The corresponding values for `CS(=O)(=O)c1ccc2nc(NCc3ccc4c(c3)OCO4)ncc2c1` are “Toxic” and 0.92.
Taken in the same sequence, the figures for `CCS(=O)(=O)c1ccc2nc(Nc3ccc(C(C)(C)C)cc3)ccc2c1` were “Toxic” and 0.93.
As for `CCS(=O)(=O)c1ccc2nc(Nc3ccc4c(c3)OCO4)ccc2c1`, the Activity entry in the data set on C2C12 is on record as “Toxic”. Besides, the “fold change (FC)” value in data set [1] amounted to 0.98.
Consider `CC(C)(C)c1ccc(CNc2ccc3cc(S(C)(=O)=O)ccc3n2)cc1`, for which the Activity result in the data set on C2C12 was “Toxic”. Also, in data set [1], the “fold change (FC)” value is recorded as 0.99.
For `CS(=O)(=O)c1ccc2nc(Nc3ccc(F)cc3)ncc2c1`, the Activity result in the data set on C2C12 is “Toxic”. In data set [1], the “fold change (FC)” value is listed as 1.06.
Take `CS(=O)(=O)c1ccc2nc(Nc3ccc(C(F)(F)F)cc3)ccc2c1`: the Activity entry with C2C12 is listed as “Toxic”. Moreover, the “fold change (FC)” value in data set [1] came out at 0.93.
Consider `CCS(=O)(=O)c1ccc2nc(NCc3ccc4c(c3)OCO4)ncc2c1`, for which the Activity result in the data set on C2C12 is listed as “Toxic”. The “fold change (FC)” value in data set [1] is 0.91.
As for `CC(C)(C)c1ccc(CNc2ncc3cc(S(C)(=O)=O)ccc3n2)cc1`, the Activity entry in the data set with C2C12 is recorded as “Toxic”. Also, in data set [1], the “fold change (FC)” value was determined as 1.19.
Take `CS(=O)(=O)c1ccc2nc(Nc3ccc4c(c3)OCO4)ncc2c1`: the Activity result with C2C12 is “Toxic”. In addition, the “fold change (FC)” value in data set [1] is reported as 0.92.
`CS(=O)(=O)c1ccc2nc(NCc3ccc(O)cc3)ncc2c1`: the Activity result in the data set with C2C12 is “Toxic”. Moreover, the “fold change (FC)” value in data set [1] is given as 1.09.
As to `CC(C)(C)c1ccc(Nc2ncc3cc(S(C)(=O)=O)ccc3n2)cc1`, the Activity result in the data set on C2C12 is reported as “Toxic”. Moreover, in data set [1], the “fold change (FC)” value amounted to 1.01.
With `CCS(=O)(=O)c1ccc2nc(Nc3ccc(F)cc3)ncc2c1`, the Activity result in the data set with C2C12 was “Toxic”. The “fold change (FC)” value in data set [1] is 1.23.
The corresponding values for `CC(C)(C)c1ccc(Nc2ccc3cc(S(C)(=O)=O)ccc3n2)cc1` are “Toxic” and 0.61.
For `COc1cc(CNc2ncc3cc(S(C)(=O)=O)ccc3n2)cc(OC)c1`, in the data set with C2C12, the Activity entry was “Toxic”. The “fold change (FC)” value in data set [1] was 1.67.
For the compound `CCS(=O)(=O)c1ccc2nc(Nc3ccc(O)cc3)ccc2c1`, the Activity result with C2C12 is on record as “Toxic”. The “fold change (FC)” value in data set [1] worked out at 0.93.
Taken in the same sequence, the figures for `CCS(=O)(=O)c1ccc2nc(Nc3ccc(C(F)(F)F)cc3)ccc2c1` were “Toxic” and 0.94.
`COc1cc(Nc2ncc3cc(S(C)(=O)=O)ccc3n2)cc(OC)c1`: in the data set on C2C12, the Activity result was “Toxic”. The “fold change (FC)” value in data set [1] turned out to be 1.6.
As to `CCS(=O)(=O)c1ccc2nc(Nc3ccc4c(c3)OCO4)ncc2c1`, in the data set on C2C12, the Activity result is reported as “Toxic”. Further, the “fold change (FC)” value in data set [1] is recorded as 0.6.
In the case of `CCS(=O)(=O)c1ccc2nc(NCc3ccc(C(C)(C)C)cc3)ncc2c1`, the Activity entry in the data set on C2C12 is given as “Toxic”. For the same compound, in data set [1], the “fold change (FC)” value stood at 1.07.
Regarding `COc1ccc(CNc2ncc3cc(S(C)(=O)=O)ccc3n2)cc1`, the Activity result in the data set with C2C12 is “Non-Toxic”. In data set [1], the “fold change (FC)” value is reported as 1.11.
`CCS(=O)(=O)c1ccc2nc(Nc3ccc(OC)cc3)ncc2c1`: the Activity entry with C2C12 is listed as “Toxic”. For the same compound, the “fold change (FC)” value in data set [1] was determined as 1.09.
On to `CCS(=O)(=O)c1ccc2nc(Nc3ccc(C(C)(C)C)cc3)ncc2c1`, for which, in the data set with C2C12, the Activity result was “Toxic”. Also, in data set [1], the “fold change (FC)” value was determined as 1.13.
Taken in the same sequence, the figures for `CCS(=O)(=O)c1ccc2nc(Nc3ccc(F)cc3)ccc2c1` were “Toxic” and 0.98.
`COc1cc(Nc2ccc3cc(S(C)(=O)=O)ccc3n2)cc(OC)c1`: in the data set on C2C12, the Activity entry is reported as “Toxic”. For the same compound, in data set [1], the “fold change (FC)” value was found to be 1.32.
Take `CCS(=O)(=O)c1ccc2nc(Nc3cc(OC)cc(OC)c3)ncc2c1`: the Activity entry in the data set with C2C12 is listed as “Toxic”. Further, in data set [1], the “fold change (FC)” value worked out at 1.52.
